Source: patent US9227971B2, “Pyrazolo[1,5-a]pyrimidine compounds as mTOR inhibitors” (Merck Sharp & Dohme Corp., priority 2010, dated 2016)
Like-named read-outs stand apart in the source and are kept apart here.

Experiments:
[1] = system: phosphorylated AKT Ser473 (pAKT S473), mTORC2 activity, PC3 cells; assay: mTOR target engagement assay, immunofluorescent cell-based, pAKT S473 readout (mTORC2 activity)
In short: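 After blocking, cells were stained overnight at 4 °C with anti-pAKT S473 antibody, then a fluorescent secondary; inhibition was read as reduced fluorescence intensity.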

[2] = system: phosphorylated 4E-BP1 Thr37/46 (p4E-BP1 Thr37/46), mTORC1 activity, PC3 cells; assay: mTOR target engagement assay, immunofluorescent cell-based, p4E-BP1 Thr37/46 readout (mTORC1 activity); conditions: read-out: p4E-BP1 Thr37/46 IC50
In short: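 PTEN-mutant PC3 prostate cells were treated with serially diluted compound in 5% FBS F12 medium (0.25% DMSO) for ninety minutes at 37° C, glyoxal-fixed, then immunostained overnight at 4° C for p4E-BP1 Thr37/46 with an Alexa Fluor 488 secondary. IC50 came from four-parameter fits of fluorescence, DMSO-only wells defining 100%.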

[3] = Homo sapiens, PC-3, Table 7-8, PC3 cells
[4] = Homo sapiens, PC-3, Table 3-1, PC3 cells
[5] = Homo sapiens, PC-3, Table 6-1, PC3 cells
[6] = Homo sapiens, PC-3, PC3 cells, compound treatment ninety minutes at 37° C.

## CC(=O)c1c([C@@H]2C[C@H]3CC[C@@H](C2)N3C(=O)c2nnc[nH]2)nc2c(-c3ccc(N4NCCC4=O)nc3)cnn2c1N [Compound 8.19, 2-(5-(5-((1R,3s,5S)-8-(4H-1,2,4-triazole-3-carbonyl)-8-azabicyclo[3.2.1]octan-3-yl)-6-acetyl-7-aminopyrazolo[1,5-a]pyrimidin-3-yl)pyridin-2-yl)pyrazolidin-3-one]
[1]; Homo sapiens, PC-3, PC3 cells
  IC50: 100 to 1000 nM
[2]; Homo sapiens, PC-3, PC3 cells
  IC50: 100 to 1000 nM

## CC(=O)c1c([C@@H]2C[C@H]3CC[C@@H](C2)N3C(=O)c2nnc[nH]2)nc2c(-c3ccc(C4(O)CCC4)nc3)cnn2c1N [Compound 7.40, 1-(5-((1R,3s,5S)-8-(4H-1,2,4-triazole-3-carbonyl)-8-azabicyclo[3.2.1]octan-3-yl)-7-amino-3-(6-(1-hydroxycyclobutyl)pyridin-3-yl)pyrazolo[1,5-a]pyrimidin-6-yl)ethanone]
[1]; [3]
  IC50: 1 to 100 nM
[2]; [3]
  IC50: 1 to 100 nM

## CS(=O)(=O)c1c([C@@H]2C[C@H]3CC[C@@H](C2)N3C(=O)c2cc(N)n[nH]2)nc2c(-c3ccc(-c4ccc(F)cc4)nc3)cnn2c1N [Compound 3.120, (3-amino-1H-pyrazol-5-yl)((1R,3s,5S)-3-(7-amino-3-(6-(4-fluorophenyl)pyridin-3-yl)-6-(methylsulfonyl)pyrazolo[1,5-a]pyrimidin-5-yl)-8-azabicyclo[3.2.1]octan-8-yl)methanone]
[1]; Table 3-1, PC3 cells
  IC50: 1 to 100 nM
[2]; Table 3-1, PC3 cells
  IC50: 1 to 100 nM

## CS(=O)(=O)c1c([C@H]2CC3CC[C@H](C2)N3C(=O)c2ncn[nH]2)nc2c(-c3ccc(C4CCC4)nc3)cnn2c1N [Compound 3.167, ((1R,3s,5S)-3-(7-amino-3-(6-cyclobutylpyridin-3-yl)-6-(methylsulfonyl)pyrazolo[1,5-a]pyrimidin-5-yl)-8-azabicyclo[3.2.1]octan-8-yl)(1H-1,2,4-triazol-5-yl)methanone]
[1]; [4]
  IC50: 100 to 1000 nM
[2]; [4]
  IC50: 100 to 1000 nM

## Nc1c(C2CC2)c([C@@H]2C[C@H]3CC[C@@H](C2)N3C(=O)c2nnc[nH]2)nc2c(-c3ccc(C(N)(C(F)(F)F)C(F)(F)F)nc3)cnn12 [Compound 7.85, ((1R,3s,5S)-3-(7-amino-3-(6-(2-amino-1,1,1,3,3,3-hexafluoropropan-2-yl)pyridin-3-yl)-6-cyclopropylpyrazolo [1,5-a]pyrimidin-5-yl)-8-azabicyclo[3.2.1]octan-8-yl)(4H-1,2,4-triazol-3-yl)methanone]
[1]; Homo sapiens, PC-3, PC3 cells
  IC50: 1000 to 10000 nM
[2]; Homo sapiens, PC-3, PC3 cells
  IC50: 1000 to 10000 nM

## CC(=O)c1c([C@@H]2C[C@H]3CC[C@@H](C2)N3C(=O)c2nnc[nH]2)nc2c(-c3ccc(-c4ncc(C)[nH]4)c(F)c3)cnn2c1N [Compound 6.39, 1-(5-((1R,3s,5S)-8-(4H-1,2,4-triazole-3-carbonyl)-8-azabicyclo[3.2.1]octan-3-yl)-7-amino-3-(3-fluoro-4-(5-methyl-1H-imidazol-2-yl)phenyl)pyrazolo[1,5-a]pyrimidin-6-yl)ethanone]
[1]; [5]
  IC50: 1 to 100 nM
[2]; [5]
  IC50: 100 to 1000 nM

## 1-((1R,3s,5S)-3-(7-amino-3-(6-(4-methoxy-(D3)-phenyl)pyridin-3-yl)-6-(methylsulfonyl)pyrazolo[1,5-a]pyrimidin-5-yl)-8-azabicyclo[3.2.1]octan-8-yl)-2-hydroxyethanone [Compound 3.67]
[1]; Table 3-1, PC3 cells
  IC50: 1 to 100 nM
[2]; Table 3-1, PC3 cells
  IC50: 100 to 1000 nM

## CC(=O)c1c([C@@H]2C[C@H]3CC[C@@H](C2)N3C(=O)c2nnc[nH]2)nc2c(-c3ccc(-c4ccn(CF)n4)nc3)cnn2c1N [Compound 1.1.86, 1-(5-((1R,3s,5S)-8-(4H-1,2,4-triazole-3-carbonyl)-8-azabicyclo[3.2.1]octan-3-yl)-7-amino-3-(6-(1-(fluoromethyl)-1H-pyrazol-3-yl)pyridin-3-yl)pyrazolo[1,5-a]pyrimidin-6-yl)ethanone]
[1]; [6]
  IC50: 1 to 100 nM
[2]; [6]
  IC50: 1 to 100 nM

## Cc1cc(-c2cnn3c(N)c(S(C)(=O)=O)c([C@@H]4C[C@H]5CC[C@@H](C4)N5C(=O)c4nnc[nH]4)nc23)cnc1C(C)(C)O [Compound 3.157, ((1R,3s,5S)-3-(7-amino-3-(6-(2-hydroxypropan-2-yl)-5-methylpyridin-3-yl)-6-(methylsulfonyl)pyrazolo[1,5-a]pyrimidin-5-yl)-8-azabicyclo[3.2.1]octan-8-yl)(4H-1,2,4-triazol-3-yl)methanone]
[1]; [4]
  IC50: 1 to 100 nM
[2]; [4]
  IC50: 1 to 100 nM

## CC(=O)c1c([C@@H]2C[C@H]3CC[C@@H](C2)N3C(=O)c2nnc[nH]2)nc2c(-c3ccc(-c4ccn(C)n4)nc3)cnn2c1N [Compound 1.1.55, 1-(5-((1R,3s,5S)-8-(4H-1,2,4-triazole-3-carbonyl)-8-azabicyclo[3.2.1]octan-3-yl)-7-amino-3-(6-(1-methyl-1H-pyrazol-3-yl)pyridin-3-yl)pyrazolo[1,5-a]pyrimidin-6-yl)ethanone]
[1]; [6]
  IC50: 1 to 100 nM
[2]; [6]
  IC50: 1 to 100 nM

## CC(=O)c1c([C@@H]2C[C@H]3CC[C@@H](C2)N3C(=O)CO)nc2c(-c3ccc(-c4ccccc4F)nc3)cnn2c1N [Compound 1.1.172, 1-((1R,3s,5S)-3-(6-acetyl-7-amino-3-(6-(2-fluorophenyl)pyridin-3-yl)pyrazolo[1,5-a]pyrimidin-5-yl)-8-azabicyclo[3.2.1]octan-8-yl)-2-hydroxyethanone]
[1]; [6]
  IC50: 1 to 100 nM
[2]; [6]
  IC50: 1 to 100 nM

## CC(=O)c1c([C@@H]2C[C@H]3CC(O)[C@@H](C2)N3C(=O)CO)nc2c(-c3ccc(-c4ccccc4)nc3)cnn2c1N (stereo partly drawn) [Compound 8.35, 1-((1S,3R,5R)-3-(6-acetyl-7-amino-3-(6-phenylpyridin-3-yl)pyrazolo[1,5-a]pyrimidin-5-yl)-6-hydroxy-8-azabicyclo[3.2.1]octan-8-yl)-2-hydroxyethanone]
[1]; Homo sapiens, PC-3, PC3 cells
  IC50: 1 to 100 nM
[2]; Homo sapiens, PC-3, PC3 cells
  IC50: 1 to 100 nM

## CNC(=O)N1[C@@H]2CC[C@H]1C[C@H](c1nc3c(-c4ccc(-c5ccccc5)nc4)cnn3c(N)c1S(C)(=O)=O)C2 [Compound 3.30, (1R,3s,5S)-3-(7-amino-6-(methylsulfonyl)-3-(6-phenylpyridin-3-yl)pyrazolo[1,5-a]pyrimidin-5-yl)-N-methyl-8-azabicyclo[3.2.1]octane-8-carboxamide]
[1]; [4]
  IC50: 100 to 1000 nM
[2]; [4]
  IC50: 100 to 1000 nM

## CS(=O)(=O)c1c([C@@H]2C[C@H]3CC[C@@H](C2)N3C(=O)c2nnc[nH]2)nc2c(-c3ccc(C4(N)CC4)c(F)c3)cnn2c1N [Compound 8.44, ((1R,3s,5S)-3-(7-amino-3-(4-(1-aminocyclopropyl)-3-fluorophenyl)-6-(methylsulfonyl)pyrazolo[1,5-a]pyrimidin-5-yl)-8-azabicyclo[3.2.1]octan-8-yl)(4H-1,2,4-triazol-3-yl)methanone]
[1]; Homo sapiens, PC-3, PC3 cells
  IC50: 1000 to 10000 nM
[2]; Homo sapiens, PC-3, PC3 cells
  IC50: 1000 to 10000 nM

## CS(=O)(=O)c1c([C@@H]2C[C@H]3CC[C@@H](C2)N3S(=O)(=O)c2nnc[nH]2)nc2c(-c3ccc(-c4ccccc4)nc3)cnn2c1N [Compound 3.26, 5-((1R,3s,5S)-8-(4H-1,2,4-triazol-3-ylsulfonyl)-8-azabicyclo[3.2.1]octan-3-yl)-6-(methylsulfonyl)-3-(6-phenylpyridin-3-yl)pyrazolo[1,5-a]pyrimidin-7-amine]
[1]; [4]
  IC50: 100 to 1000 nM
[2]; [4]
  IC50: 1000 to 10000 nM

## Nc1c(C2CC2)c([C@]2(O)C[C@H]3CC[C@@H](C2)N3C(=O)c2nnc[nH]2)nc2c(-c3ccc(-c4ccccc4)nc3)cnn12 [Compound 8.24, ((1R,3r,5S)-3-(7-amino-6-cyclopropyl-3-(6-phenylpyridin-3-yl)pyrazolo[1,5-a]pyrimidin-5-yl)-3-hydroxy-8-azabicyclo[3.2.1]octan-8-yl)(4H-1,2,4-triazol-3-yl)methanone]
[1]; Homo sapiens, PC-3, PC3 cells
  IC50: 100 to 1000 nM
[2]; Homo sapiens, PC-3, PC3 cells
  IC50: 1000 to 10000 nM

## CS(=O)(=O)c1c([C@@H]2C[C@H]3CC[C@@H](C2)N3C(=O)c2nnc[nH]2)nc2c(-c3ccc(C4(O)CCC4)nc3)cnn2c1N [Compound 7.41, ((1R,3s,5S)-3-(7-amino-3-(6-(1-hydroxycyclobutyl)pyridin-3-yl)-6-(methylsulfonyl)pyrazolo [1,5-a]pyrimidin-5-yl)-8-azabicyclo[3.2.1]octan-8-yl)(4H-1,2,4-triazol-3-yl)methanone]
[1]; [3]
  IC50: 1 to 100 nM
[2]; [3]
  IC50: 1 to 100 nM

## Cn1ccc(-c2ccc(-c3cnn4c(N)c(S(C)(=O)=O)c([C@@H]5C[C@H]6CC[C@@H](C5)N6C(=O)c5cn[nH]n5)nc34)cn2)n1 [Compound 3.174, ((1R,3s,5S)-3-(7-amino-3-(6-(1-methyl-1H-pyrazol-3-yl)pyridin-3-yl)-6-(methylsulfonyl)pyrazolo[1,5-a]pyrimidin-5-yl)-8-azabicyclo[3.2.1]octan-8-yl)(2H-1,2,3-triazol-4-yl)methanone]
[1]; [4]
  IC50: 100 to 1000 nM
[2]; [4]
  IC50: 100 to 1000 nM

## CC(=O)c1c([C@@H]2C[C@H]3CC[C@@H](C2)N3C(=O)c2nnc[nH]2)nc2c(-c3ccc([C@@H](O)C(F)(F)F)nc3)cnn2c1N [Compound 7.73, 1-(5-((1R,3s,5S)-8-(4H-1,2,4-triazole-3-carbonyl)-8-azabicyclo[3.2.1]octan-3-yl)-7-amino-3-(6-((R)-2,2,2-trifluoro-1-hydroxyethyl)pyridin-3-yl)pyrazolo[1,5-a]pyrimidin-6-yl)ethanone]
[1]; Homo sapiens, PC-3, PC3 cells
  IC50: 100 to 1000 nM
[2]; Homo sapiens, PC-3, PC3 cells
  IC50: 100 to 1000 nM
